Source: the supplement of paper PMC10307832

How the values were obtained:
Assay in all cases: relative viability (nuclei count vs DMSO), 5 days (fraction); higher = more cells survive
[1] = compound: CCCS(=O)(=O)Nc1ccc(F)c(C(=O)c2c[nH]c3ncc(-c4ccc(Cl)cc4)cc23)c1F [Vemurafenib] + Cc1nc(Nc2ncc(C(=O)Nc3c(C)cccc3Cl)s2)cc(N2CCN(CCO)CC2)n1 [Dasatinib] (partner 0.075 µM)
In short: (§1)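 Relative viability divides the nuclei count in treated wells by that in vehicle wells. Lung cancer cell lines were seeded in 1536-well plates, dosed by pin tool the next day, and fixed and stained after 5 days in one step with final 0.05% Triton X-100, 1% formaldehyde and 1 ug/ml Hoechst. Dosing was a single drug or a fixed anchor-drug dose plus five library-drug doses (not always all listed) in √10 steps, and values are medians of duplicate plates imaged at 4×.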

[2] = compound: COc1cccc2cc(-c3nc([C@H]4CC[C@H](C(=O)O)CC4)n4ncnc(N)c34)[nH]c12 [OSI-027] + CC(C)C[C@H](NC(=O)[C@H](Cc1ccccc1)NC(=O)c1cnccn1)B(O)O [Bortezomib] (partner 0.002 µM)
In short: as §1

[3] = compound: COc1cccc2cc(-c3nc([C@H]4CC[C@H](C(=O)O)CC4)n4ncnc(N)c34)[nH]c12 [OSI-027] + O=C(c1cc(Cc2n[nH]c(=O)c3ccccc23)ccc1F)N1CCN(C(=O)C2CC2)CC1 [Olaparib] (partner 8 µM)
In short: as §1

[4] = compound: Cc1nc(NC(=O)N2CCC[C@H]2C(N)=O)sc1-c1ccnc(C(C)(C)C(F)(F)F)c1 [Alpelisib] + Nc1ncn([C@H]2C[C@H](O)[C@@H](CO)O2)c(=O)n1 [Decitabine] (partner 2 µM)
In short: as §1

Cell Line | relative viability ([1]; first compound 0.03162 µM) | relative viability ([1]; first compound 0.1 µM) | relative viability ([1]; first compound 0.3162 µM) | relative viability ([1]; first compound 1 µM) | relative viability ([2]; first compound 0.01 µM) | relative viability ([2]; first compound 0.03162 µM) | relative viability ([2]; first compound 0.1 µM) | relative viability ([2]; first compound 0.3162 µM) | relative viability ([2]; first compound 1 µM) | relative viability ([3]; first compound 0.01 µM) | relative viability ([3]; first compound 0.03162 µM) | relative viability ([3]; first compound 0.1 µM) | relative viability ([3]; first compound 0.3162 µM) | relative viability ([3]; first compound 1 µM) | relative viability ([4]; first compound 0.04 µM) | relative viability ([4]; first compound 0.1265 µM) | relative viability ([4]; first compound 0.4 µM) | relative viability ([4]; first compound 1.265 µM) | relative viability ([4]; first compound 4 µM)
NCI-H2009 | 0.294 | 0.278 | 0.171 | 0.254 | 1.07 | 1.09 | 0.933 | 0.929 | 0.592 | 0.859 | 0.674 | 0.724 | 0.584 | 0.555 | 0.35 | 0.458 | 0.398 | 0.389 | 0.354
NCI-H2023 | 0.507 | 0.506 | 0.444 | 0.489 | 0.944 | 0.926 | 0.898 | 0.687 | 0.358 | 0.455 | 0.446 | 0.455 | 0.303 | 0.253 | 0.205 | 0.188 | 0.234 | 0.245 | 0.183
NCI-H2085 | 0.244 | 0.273 | 0.515 | 0.256 | 1.11 | 0.965 | 0.95 | 0.977 | 0.853 | 0.751 | 0.771 | 0.726 | 0.763 | 0.633 | 0.601 | 0.524 | 0.538 | 0.574 | 0.467
NCI-H2087 | 0.751 | 0.789 |  | 0.897 | 0.82 | 0.879 | 0.938 | 0.859 | 0.412 | 0.757 | 0.675 | 0.586 | 0.542 | 0.259 | 0.311 | 0.203 | 0.325 | 0.26 | 0.135
NCI-H2126 | 0.562 | 0.584 |  | 0.537 | 1.02 | 1.13 | 1.05 | 0.989 | 0.87 | 0.939 | 0.904 | 0.879 | 0.835 | 0.578 | 0.586 | 0.576 | 0.607 | 0.454 | 0.428
NCI-H2347 | 0.346 | 0.311 | 0.692 | 0.346 | 0.857 | 0.904 | 0.741 | 0.601 | 0.493 | 0.599 | 0.536 | 0.598 | 0.492 | 0.344 | 0.641 | 0.635 | 0.657 | 0.539 | 0.571
NCI-H2405 | 0.213 | 0.231 |  | 0.231 | 0.982 | 1.04 | 0.872 | 0.866 | 0.425 | 0.886 | 0.838 | 0.823 | 0.694 | 0.456 | 0.756 | 0.731 | 0.699 | 0.517 | 0.58
NCI-H3122 | 0.652 | 0.598 | 0.841 | 0.712 | 1.11 | 1.04 | 1.11 | 1.02 | 0.87 | 0.759 | 0.604 | 0.682 | 0.647 | 0.407 | 0.371 | 0.454 | 0.374 | 0.278 | 0.209
PC-3 [JPC-3] | 0.921 |  | 0.9 | 1.08 | 0.816 | 0.731 | 0.807 | 0.877 | 0.815 | 1.13 | 1.14 | 1.23 | 1.08 | 0.628 | 0.798 | 0.757 | 0.887 | 0.813 | 0.79
